Values quoted from earlier work in publication PMC7377474, “Preclinical characterization of CPL302-253, a selective inhibitor of PI3Kδ, as the candidate for the inhalatory treatment and prevention of Asthma” (PLoS ONE, 2020).

Molecular target: T1, hERG (Homo sapiens, UniProt Q12809)
T1 construct: purchased DiscoverX (Eurofins) SafetyScan44
Settings: available preclinical data; cited from earlier work

T1 sequence (Q12809 whole entry): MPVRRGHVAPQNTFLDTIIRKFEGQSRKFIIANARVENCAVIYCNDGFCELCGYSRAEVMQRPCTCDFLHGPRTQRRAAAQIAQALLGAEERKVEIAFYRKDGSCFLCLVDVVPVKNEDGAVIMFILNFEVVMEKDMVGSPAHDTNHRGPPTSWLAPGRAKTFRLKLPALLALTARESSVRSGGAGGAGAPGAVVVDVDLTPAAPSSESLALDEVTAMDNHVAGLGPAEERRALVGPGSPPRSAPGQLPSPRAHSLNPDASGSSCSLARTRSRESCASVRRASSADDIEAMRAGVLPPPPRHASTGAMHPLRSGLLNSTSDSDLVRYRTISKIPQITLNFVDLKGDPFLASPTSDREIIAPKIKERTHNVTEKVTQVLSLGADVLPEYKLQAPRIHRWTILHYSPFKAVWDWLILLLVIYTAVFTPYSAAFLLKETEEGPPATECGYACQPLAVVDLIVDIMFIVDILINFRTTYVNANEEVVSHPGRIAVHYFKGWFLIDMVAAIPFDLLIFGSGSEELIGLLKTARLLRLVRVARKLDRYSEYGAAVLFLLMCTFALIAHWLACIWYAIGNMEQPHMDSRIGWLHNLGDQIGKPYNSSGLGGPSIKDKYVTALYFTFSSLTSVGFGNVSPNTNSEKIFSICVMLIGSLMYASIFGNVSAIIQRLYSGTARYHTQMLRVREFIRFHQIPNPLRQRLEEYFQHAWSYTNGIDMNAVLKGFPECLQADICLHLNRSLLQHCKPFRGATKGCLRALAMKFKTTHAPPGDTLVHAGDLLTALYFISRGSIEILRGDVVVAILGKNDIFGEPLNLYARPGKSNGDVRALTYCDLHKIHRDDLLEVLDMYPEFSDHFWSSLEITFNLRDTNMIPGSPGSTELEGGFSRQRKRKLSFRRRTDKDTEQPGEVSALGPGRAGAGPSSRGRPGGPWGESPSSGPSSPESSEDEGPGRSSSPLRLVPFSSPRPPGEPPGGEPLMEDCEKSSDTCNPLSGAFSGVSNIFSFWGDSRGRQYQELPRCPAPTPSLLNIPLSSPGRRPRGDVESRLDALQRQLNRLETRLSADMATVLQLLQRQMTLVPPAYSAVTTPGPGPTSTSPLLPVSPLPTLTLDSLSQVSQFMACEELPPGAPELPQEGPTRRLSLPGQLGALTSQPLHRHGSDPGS

## CC(C)N1CCN(Cc2cnc(-c3cc(-c4cccc5[nH]ccc45)cc4[nH]ncc34)o2)CC1 [Nemiralisib]
  activity towards hERG: has activity towards hERG
